In patent US20230159509A1 (Amathus Therapeutics, Inc., priority 2020, published 2023):

Molecular target: T1, nanoLuc TRAP1 in SHSY5Y cells (Homo sapiens, UniProt Q12931)
T1 construct: expressed in transfected cells; host or cells: SHSY5Y cells, transient transfection with FuGENE HD
T1 sequence (Q12931 60-704): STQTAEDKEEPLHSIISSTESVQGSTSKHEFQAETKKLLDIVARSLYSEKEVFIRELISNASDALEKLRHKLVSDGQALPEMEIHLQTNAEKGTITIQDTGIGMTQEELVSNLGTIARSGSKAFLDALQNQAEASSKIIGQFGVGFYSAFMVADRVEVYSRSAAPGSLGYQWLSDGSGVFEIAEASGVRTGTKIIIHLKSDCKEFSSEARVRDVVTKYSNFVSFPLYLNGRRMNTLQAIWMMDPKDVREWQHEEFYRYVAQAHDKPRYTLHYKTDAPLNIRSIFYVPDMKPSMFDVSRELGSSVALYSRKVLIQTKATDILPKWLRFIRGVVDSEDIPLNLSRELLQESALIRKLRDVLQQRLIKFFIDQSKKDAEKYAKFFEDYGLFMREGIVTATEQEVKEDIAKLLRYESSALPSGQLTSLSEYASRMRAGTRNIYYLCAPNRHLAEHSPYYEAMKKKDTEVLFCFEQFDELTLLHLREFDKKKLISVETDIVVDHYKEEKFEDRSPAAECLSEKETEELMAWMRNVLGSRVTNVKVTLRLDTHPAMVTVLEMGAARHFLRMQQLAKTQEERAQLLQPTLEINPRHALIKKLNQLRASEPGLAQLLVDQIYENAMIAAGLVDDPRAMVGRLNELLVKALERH
Experiment: NanoBRET in-cell target engagement assay
Format: cell-based
Description: In-cell target engagement assays were performed as described in Robers M. B. et al. (2019) Quantitative, Real-Time Measurements of Intracellular Target Engagement Using Energy Transfer. In: Ziegler S., Waldmann H. (eds) Systems Chemical Biology. Methods in Molecular Biology, vol 1888. Humana Press, New York, N.Y.; Machleidt et al., ACS Chem. Biol. 2015, 10, 8, 1797-1804; or Vasta et al., Cell Chemical Biology 25, 206-214, Feb. 15, 2018; or as described herein.
Below is a protocol for transient transfection of SHSY5Y cells with NanoLuc® fusions. • 1. Cultivate SHSY5Y cells appropriately prior to assay in MEM w NEAA supplemented with 10% FBS. • 2. Remove medium from cell flask via aspiration, trypsinize, and allow cells to dissociate from the flask. • 3. Neutralize trypsin using growth medium and pellet cells via centrifugation at 200 g for 5 minutes. • 4. Aspirate medium and re-suspend cells into a single cell suspension using complete cell culture medium. • 5. Adjust the cell density to 300K/mL in cell culture medium in a sterile, conical tube. • 6. Prepare lipid:DNA complexes as follows (this covers two assay plates, adjust numbers for more plates) • a. Prepare a 10 μg/mL solution of DNA in Opti-MEM without serum. This solution should contain the following ratios of carrier DNA and DNA encoding NanoLuc® fusion. • i. 5.0 μg/mL of Transfection Carrier DNA (pGEM) • ii. […]

Structure (SMILES): COc1ncc(NC(=O)c2csc(-c3ccccc3)n2)cc1S(=O)(=O)Nc1c(C)cccc1C [compound 1178]
- displacement of fluorescent nanoBRET tracer (probe-385) from nanoLuc TRAP1 (SHSY5Y cells, tracer titration, compound 20 PM, FIG. 13): displacement of the tracer
- displacement of nanoBRET tracer (probe-385) from nanoLuc TRAP1, concentration response (live SHSY5Y cells, tracer 1 μM, FIG. 14): displacing the nanoBRET tracer molecule
